Drawing on ChEMBL document CHEMBL1909046, “DrugMatrix in vitro pharmacology data”, this text covers IC50 for one compound.

The IC50 is the point on the concentration scale where inhibition reaches its midpoint. Higher therefore signals weaker potency in that assay.

This assay addresses Cytochrome P450 3A4 (Homo sapiens, UniProt P08684).

Molecules are shown by their SMILES.

Cytochrome P450 3A4, sequence (P08684 whole entry): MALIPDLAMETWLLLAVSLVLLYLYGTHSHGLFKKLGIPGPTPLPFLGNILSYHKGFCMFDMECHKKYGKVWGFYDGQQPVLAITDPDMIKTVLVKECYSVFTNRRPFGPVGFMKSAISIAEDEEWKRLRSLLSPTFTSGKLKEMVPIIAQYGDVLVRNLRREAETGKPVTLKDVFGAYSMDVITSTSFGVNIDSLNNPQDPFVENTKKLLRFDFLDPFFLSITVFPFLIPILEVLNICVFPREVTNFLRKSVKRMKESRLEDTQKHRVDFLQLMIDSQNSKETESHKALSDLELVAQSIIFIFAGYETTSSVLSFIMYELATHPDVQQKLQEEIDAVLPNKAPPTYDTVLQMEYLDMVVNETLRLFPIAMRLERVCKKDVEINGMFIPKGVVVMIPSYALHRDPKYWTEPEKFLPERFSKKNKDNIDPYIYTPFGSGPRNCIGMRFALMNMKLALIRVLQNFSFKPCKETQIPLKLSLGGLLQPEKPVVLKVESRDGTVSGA

Consider `CC(C)(C(=O)c1cccnc1)c1cccnc1` [METYRAPONE], for which the IC50 amounted to 0.8 µM.
